Experimental data taken from US20150299185A1, “NOVEL IMIDAZOPYRIDINE DERIVATIVES AS A TYROSINE KINASE INHIBITOR” (HANMI PHARM. CO., LTD., priority 2011, published 2015).
pIC50: −log10 of the molar value.

Tests used:
[1] = target: T1, BTK (Homo sapiens, UniProt Q06187); assay: BTK inhibitory activity, Z-Lyte Kinase Assay Kit; type: biochemical; details: 60 minutes at room temperature, BTK enzyme (Invitrogen PV3190)
T1 construct: purchased Invitrogen PV3190
Protocol: (§1) Evaluation of JAK3 and BTK Inhibitory Activity
(§2) The compounds prepared in Examples 1 to 20 were tested for JAK3 and BTK inhibitory activity. Kinase inhibitory activity was measured by using Z-Lyte Kinase Assay Kit (Invitrogen), and JAK3 and BTK enzymes were purchased from Invitrogen (PV3855, PV3190).
(§3) Specifically, the compounds of Examples 1 to 20 were diluted with a 4% aqueous solution of DMSO to obtain solutions with concentrations in the range of 1˜0.0001 μM. Each kinase was diluted to 1˜10 ng/assay, and ATP was diluted to form a kinase buffer (50 mM HEPES, pH 7.4; 10 mM MgCl2; 1 mM EGTA; 0.01% BRIJ-35) by calculating an approximate Kd value. The assays were performed in 384-well polystyrene flat-bottomed plates. 5 μL of the diluted solution of the compound, peptide substrate having a suitable concentration, 10 μL of mixed kinase solution and 5 μL of ATP solution having a concentration of 5 to 300 μM were added to the sample, and allowed to react in a mixer for 60 minutes at room temperature. After 60 minutes, 10 μL of fluorescent labeling reagents was added to each mixture so as to allow fluorescent labeling of peptide substrates, followed by adding a finishing solution to complete the reaction. The fluorescence level was measured using a Molecular Device with an excitation filter at 400 nm, and an emission filter at 520 nm. The kinase inhibitory activities of the compounds were calculated in phosphorylation rates between 0˜100% against the control group (staurosporine or each of kinase inhibitor) with reference to the protocol of the kit, and percentage inhibition was calculated and plotted against concentration (x-axis) to calculate 50% inhibitory concentration (IC50). The IC50 values were obtained by using Microsoft Excel, and the results are shown in Table 5, wherein A: IC50≦50 nM, B: IC50=50˜100 nM, C: IC50=100˜1,000 nM, and D: IC50≧1,000 nM.

[2] = target: T2, JAK3 (Homo sapiens, UniProt P52333); assay: JAK3 inhibitory activity, Z-Lyte Kinase Assay Kit; type: biochemical; details: 60 minutes at room temperature, JAK3 enzyme (Invitrogen PV3855)
T2 construct: purchased Invitrogen PV3855
Protocol: as §1, §2, §3

T2 sequence (P52333 781-1124 limits assumed): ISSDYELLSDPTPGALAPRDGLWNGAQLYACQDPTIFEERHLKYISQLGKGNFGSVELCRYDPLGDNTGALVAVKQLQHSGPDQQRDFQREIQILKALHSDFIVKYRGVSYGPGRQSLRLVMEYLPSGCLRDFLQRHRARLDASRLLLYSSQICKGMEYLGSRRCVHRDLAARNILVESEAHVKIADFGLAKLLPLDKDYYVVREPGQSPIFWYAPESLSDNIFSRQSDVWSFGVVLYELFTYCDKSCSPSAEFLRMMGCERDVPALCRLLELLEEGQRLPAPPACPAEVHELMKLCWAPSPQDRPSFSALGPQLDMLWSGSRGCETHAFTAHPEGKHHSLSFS
T1 sequence (Q06187 whole entry): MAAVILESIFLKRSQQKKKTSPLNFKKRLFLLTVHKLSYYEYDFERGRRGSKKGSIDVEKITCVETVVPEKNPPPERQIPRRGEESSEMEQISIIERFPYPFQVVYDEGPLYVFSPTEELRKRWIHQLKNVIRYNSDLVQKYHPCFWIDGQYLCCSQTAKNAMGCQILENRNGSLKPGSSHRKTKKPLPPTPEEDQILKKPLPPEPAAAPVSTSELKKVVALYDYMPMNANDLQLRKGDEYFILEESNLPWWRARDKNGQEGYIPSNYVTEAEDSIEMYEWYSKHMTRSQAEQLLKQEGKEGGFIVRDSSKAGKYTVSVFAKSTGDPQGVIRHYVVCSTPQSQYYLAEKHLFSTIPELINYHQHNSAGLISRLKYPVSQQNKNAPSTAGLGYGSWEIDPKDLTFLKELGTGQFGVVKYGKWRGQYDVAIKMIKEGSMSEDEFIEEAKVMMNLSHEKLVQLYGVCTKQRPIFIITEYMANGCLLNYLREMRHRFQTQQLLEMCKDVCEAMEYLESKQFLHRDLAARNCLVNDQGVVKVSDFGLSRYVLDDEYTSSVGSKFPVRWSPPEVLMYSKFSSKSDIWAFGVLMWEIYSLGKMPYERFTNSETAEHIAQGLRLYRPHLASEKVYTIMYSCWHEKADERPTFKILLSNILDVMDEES

SMILES: C=CC(=O)Nc1cccc(Oc2c(Cl)cnc3[nH]c(-c4ccc(OC)cc4)nc23)c1 [Example 18, N-(3-(6-chloro-2-(4-methoxyphenyl)-3H-imidazo[4,5-b]pyridin-7-yloxy)phenyl)acrylamide]
- pIC50 [1]: 6.00 to 7.00

SMILES: C=CC(=O)Nc1cccc(Oc2c(Cl)cnc3[nH]c(-c4ccc(N(C)C)cc4)nc23)c1 [Example 6, N-(3-(6-chloro-2-(4-(dimethylamino)phenyl)-3H-imidazo[4,5-b]pyridin-7-yloxy)phenyl)acrylamide]
- pIC50 [1]: 6.00 to 7.00

SMILES: C=CC(=O)Nc1cccc(Oc2c(Cl)cnc3[nH]c(-c4ccc(CN5CCN(C)CC5)cc4)nc23)c1 [Example 17, N-(3-(6-chloro-2-(4-((4-methylpiperazin-1-yl)methyl)phenyl)-3H-imidazo[4,5-b]pyridin-7-yloxy)phenyl)acrylamide]
- pIC50 [1]: 7.00 to 7.30
- pIC50 [2]: ≥ 7.30

SMILES: C=CC(=O)Nc1cccc(Oc2c(Cl)cnc3[nH]c(-c4ccc(CN5CCCCC5)cc4)nc23)c1 [Example 15, N-(3-(6-chloro-2-(4-(piperidin-1-ylmethyl)phenyl)-3H-imidazo[4,5-b]pyridin-7-yloxy)phenyl)acrylamide]
- pIC50 [1]: ≥ 7.30
- pIC50 [2]: ≥ 7.30

SMILES: C=CC(=O)Nc1cccc(Oc2ccnc3[nH]c(-c4ccc(N5CCN(C)CC5)cc4)nc23)c1 [Example 20, N-(3-(2-(4-(4-methylpiperazin-1-yl)phenyl)-3H-imidazo[4,5-b]pyridin-7-yloxy)phenyl)acrylamide]
- pIC50 [1]: 6.00 to 7.00
- pIC50 [2]: 6.00 to 7.00

SMILES: C=CC(=O)Nc1cccc(Oc2c(Cl)cnc3[nH]c(-c4ccncc4)nc23)c1 [Example 19, N-(3-(6-chloro-2-(pyridin-4-yl)-3H-imidazo[4,5-b]pyridin-7-yloxy)phenyl)acrylamide]
- pIC50 [1]: 6.00 to 7.00
- pIC50 [2]: ≥ 7.30

SMILES: C=CC(=O)Nc1cccc(Oc2c(Cl)cnc3[nH]c(-c4ccc(CN(C)C)cc4)nc23)c1 [Example 11, N-(3-(6-chloro-2-(4-((dimethylamino)methyl)phenyl)-3H-imidazo[4,5-b]pyridin-7-yloxy)phenyl)acrylamide]
- pIC50 [1]: ≥ 7.30
- pIC50 [2]: ≥ 7.30

SMILES: C=CC(=O)Nc1cccc(Oc2c(Cl)cnc3[nH]c(-c4ccc(C(=O)N5CCN(C)CC5)cc4)nc23)c1 [Example 3, N-(3-(6-chloro-2-(4-(4-methylpiperazin-1-carbonyl)phenyl)-3H-imidazo[4,5-b]pyridin-7-yloxy)phenyl)acrylamide]
- pIC50 [1]: ≥ 7.30
- pIC50 [2]: 6.00 to 7.00

SMILES: C=CC(=O)Nc1cccc(Oc2c(Cl)cnc3[nH]c(-c4ccc(CN(CC)CC)cc4)nc23)c1 [Example 13, N-(3-(6-chloro-2-(4-((diethylamino)methyl)phenyl)-3H-imidazo[4,5-b]pyridin-7-yloxy)phenyl)acrylamide]
- pIC50 [1]: ≥ 7.30
- pIC50 [2]: ≥ 7.30

SMILES: C=CC(=O)Nc1cccc(Oc2c(Cl)cnc3[nH]c(-c4ccc([S+](C)[O-])cc4)nc23)c1 (stereo not shown) [Example 7, N-(3-(6-chloro-2-(4-(methylsulphinyl)phenyl)-3H-imidazo[4,5-b]pyridin-7-yloxy)phenyl)acrylamide]
- pIC50 [1]: ≥ 7.30

SMILES: C=CC(=O)Nc1cccc(Oc2c(Cl)cnc3[nH]c(-c4ccc(C(=O)O)cc4)nc23)c1 [Example 9, 4-(7-(3-acrylamidophenoxy)-6-chloro-3H-imidazo[4,5-b]pyridin-2-yl)-benzoic acid]
- pIC50 [1]: 6.00 to 7.00

SMILES: C=CC(=O)Nc1cccc(Oc2c(Cl)cnc3[nH]c(-c4ccc(CN5CCCC5)cc4)nc23)c1 [Example 14, N-(3-(6-chloro-2-(4-(pyrroldin-1-ylmethyl)phenyl)-3H-imidazo[4,5-b]pyridin-7-yloxy)phenyl)acrylamide]
- pIC50 [1]: ≥ 7.30
- pIC50 [2]: ≥ 7.30

SMILES: C=CC(=O)Nc1cccc(Oc2c(Cl)cnc3[nH]c(-c4ccc(NC5CCN(C)CC5)cc4)nc23)c1 [Example 5, N-(3-(6-chloro-2-(4-(1-methylpiperidin-4-ylamino)phenyl)-3H-imidazo[4,5-b]pyridin-7-yloxy)phenyl)acrylamide]
- pIC50 [1]: ≥ 7.30
- pIC50 [2]: ≥ 7.30

SMILES: C=CC(=O)Nc1cccc(Oc2c(Cl)cnc3[nH]c(-c4ccc(N5CCN(C)CC5)cc4)nc23)c1 [Example 1, N-(3-(6-chloro-2-(4-(4-methylpiperazin-1-yl)phenyl)-3H-imidazo[4,5-b]pyridin-7-yloxy)phenyl)acrylamide]
- pIC50 [1]: ≥ 7.30
- pIC50 [2]: 7.00 to 7.30

SMILES: C=CC(=O)Nc1cccc(Oc2c(Cl)cnc3[nH]c(-c4ccc(CN(C)CC)cc4)nc23)c1 [Example 12, N-(3-(6-chloro-2-(4-((ethyl(methyl)amino)methyl)phenyl)-3H-imidazo[4,5-b]pyridin-7-yloxy)phenyl)acrylamide]
- pIC50 [1]: ≥ 7.30
- pIC50 [2]: ≥ 7.30

SMILES: C=CC(=O)Nc1cccc(Oc2c(Cl)cnc3[nH]c(-c4ccc(N5CCC(O)CC5)cc4)nc23)c1 [Example 2, N-(3-(6-chloro-2-(4-(4-hydroxypiperidin-1-yl)phenyl)-3H-imidazo[4,5-b]pyridin-7-yloxy)phenyl)acrylamide]
- pIC50 [1]: 7.00 to 7.30
- pIC50 [2]: 6.00 to 7.00

SMILES: C=CC(=O)Nc1cccc(Oc2c(Cl)cnc3[nH]c(-c4ccc(C(=O)N(C)C)cc4)nc23)c1 [Example 8, 4-(7-(3-acrylamidophenoxy)-6-chloro-3H-imidazo[4,5-b]pyridin-2-yl)-N,N-dimethylbenzamide]
- pIC50 [1]: ≥ 7.30
- pIC50 [2]: 7.00 to 7.30

SMILES: C=CC(=O)Nc1cccc(Oc2c(Cl)cnc3[nH]c(-c4ccc(C(=O)N5CCOCC5)cc4)nc23)c1 [Example 4, N-(3-(6-chloro-2-(4-(morpholin-4-carbonyl)phenyl)-3H-imidazo[4,5-b]pyridin-7-yloxy)phenyl)acrylamide]
- pIC50 [1]: ≥ 7.30

SMILES: C=CC(=O)Nc1cccc(Oc2c(Cl)cnc3[nH]c(-c4ccc(CN5CCOCC5)cc4)nc23)c1 [Example 16, N-(3-(6-chloro-2-(4-(morpholinomethyl)phenyl)-3H-imidazo[4,5-b]pyridin-7-yloxy)phenyl)acrylamide]
- pIC50 [1]: 7.00 to 7.30
- pIC50 [2]: ≥ 7.30

SMILES: C=CC(=O)Nc1cccc(Oc2c(Cl)cnc3[nH]c(-c4ccc(C(=O)NC5CCN(C)CC5)cc4)nc23)c1 [Example 10, 4-(7-(3-acrylamidophenoxy)-6-chloro-3H-imidazo[4,5-b]pyridin-2-yl)-N-(1-methylpiperidin-4-yl)benzamide]
- pIC50 [1]: 7.00 to 7.30
